# Laboratory results taken from patent US20240180877A1, “ANTI-ANXIETY COMPOSITION” (SUNTORY HOLDINGS LIMITED, priority 2021, published 2024).
# pIC50: −log10 of the molar value.
# Assays:
# [1] = molecular target: T1, Recombinant human α3/β4 nicotinic acetylcholine receptors (nAChR (α3β4)) (Homo sapiens, UniProt P30926+P32297); assay: Inhibition of [125I]epibatidine binding to nAChR (α3β4) cell membranes
# T1 construct: host or cells: CHO-K1
# Protocol: (§1) In order to evaluate molecular targets for reducing glutamate signaling by L-ergothioneine, nicotinic acetylcholine receptors associated with glutamate signaling were subjected to in vitro assay. The in vitro assay was commissioned to Eurofins Panlabs. The test was performed by the following method.
# Recombinant human α3/β4 nicotinic acetylcholine receptors (nAChR (α3β4)) expressed in Chinese hamster ovary-derived CHO-K1 cells were used. Cell membranes (0.6 μg) of the cells expressing nAChR (α3β4) were incubated in Tris-HCl buffer (pH 7.4) with 0.05 nM [125I]epibatidine and L-ergothioneine (L-ergothioneine concentration: 30 μM, 100 μM, 300 μM, 1000 μM, or 3000 μM) at 25° C. for 60 minutes. Non-specific binding was estimated in the presence of 10 μM epibatidine. The cell membranes were filtered through a filter and washed, and the activity of L-ergothioneine to inhibit binding of substrates was evaluated using radioactivity of [125I]epibatidine as an index.
# [2] = molecular target: T2, Recombinant human α4/β2 nicotinic acetylcholine receptors (nAChR (α4β2)) (Homo sapiens, UniProt P17787+P43681); assay: Inhibition of [3H]cytisine binding to nAChR (α4β2) cell membranes; details: FIG. 3; 100 μM or 1000 μM; 0.6 nM [3H]cytisine; SH-SY5Y cell membranes
# T2 construct: host or cells: SH-SY5Y
# T2 sequence (P43681 29-627 limits assumed): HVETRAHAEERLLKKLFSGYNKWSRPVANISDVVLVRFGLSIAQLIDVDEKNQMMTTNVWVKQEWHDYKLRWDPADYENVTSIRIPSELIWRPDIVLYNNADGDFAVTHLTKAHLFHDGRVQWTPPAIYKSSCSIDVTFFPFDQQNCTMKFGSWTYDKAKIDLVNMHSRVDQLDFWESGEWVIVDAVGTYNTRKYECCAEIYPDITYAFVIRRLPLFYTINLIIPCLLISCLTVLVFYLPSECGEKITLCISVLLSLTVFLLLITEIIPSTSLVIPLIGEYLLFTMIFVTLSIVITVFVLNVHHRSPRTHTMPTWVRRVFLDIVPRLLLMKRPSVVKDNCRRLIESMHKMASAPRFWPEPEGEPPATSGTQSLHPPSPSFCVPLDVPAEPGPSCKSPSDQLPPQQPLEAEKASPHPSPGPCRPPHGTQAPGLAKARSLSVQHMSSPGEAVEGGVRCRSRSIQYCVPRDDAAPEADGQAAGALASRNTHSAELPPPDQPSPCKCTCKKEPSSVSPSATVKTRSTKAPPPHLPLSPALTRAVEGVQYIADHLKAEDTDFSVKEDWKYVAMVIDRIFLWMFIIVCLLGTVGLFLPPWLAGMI
# T2 sequence (P17787 26-502): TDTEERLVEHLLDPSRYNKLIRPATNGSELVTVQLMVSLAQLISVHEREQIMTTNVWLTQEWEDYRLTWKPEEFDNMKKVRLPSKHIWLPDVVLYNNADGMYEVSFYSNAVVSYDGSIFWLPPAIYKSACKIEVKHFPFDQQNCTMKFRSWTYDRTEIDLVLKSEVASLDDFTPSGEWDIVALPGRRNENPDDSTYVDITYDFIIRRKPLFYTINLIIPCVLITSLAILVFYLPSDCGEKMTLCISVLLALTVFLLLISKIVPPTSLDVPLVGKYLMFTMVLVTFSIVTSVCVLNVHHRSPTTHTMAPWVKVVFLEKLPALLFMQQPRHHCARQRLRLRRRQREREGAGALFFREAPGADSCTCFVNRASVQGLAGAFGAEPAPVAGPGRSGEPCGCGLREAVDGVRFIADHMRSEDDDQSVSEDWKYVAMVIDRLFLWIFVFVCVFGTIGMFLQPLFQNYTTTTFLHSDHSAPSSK
# Protocol: as §1
# Recombinant human α4/β2 nicotinic acetylcholine receptors (nAChR (α4β2)) expressed in human neuroblastoma-derived SH-SY5Y cells were used. Cell membranes (30 μg) of the cells expressing nAChR (α4β2) were incubated in Tris-HCl buffer (pH 7.4) with 0.6 nM [3H]cytisine and L-ergothioneine (L-ergothioneine concentration: 100 μM or 1000 μM) at 4° C. for 120 minutes. Non-specific binding was estimated in the presence of 10 μM nicotine bitartrate. The cell membranes were filtered through a filter and washed, and the activity of L-ergothioneine to inhibit binding of substrates was evaluated using radioactivity of [3H]cytisine as an index.
# [3] = molecular target: Recombinant human α7 nicotinic acetylcholine receptors (nAChR (α7)) (Homo sapiens, UniProt P36544); assay type: binding; details: FIG. 3; 100 μM or 1000 μM; 0.4 nM [125I]-α-bungarotoxin; SH-SY5Y cell membranes
# Chain of Recombinant human α7 nicotinic acetylcholine receptors (nAChR (α7)) (P36544 23-502): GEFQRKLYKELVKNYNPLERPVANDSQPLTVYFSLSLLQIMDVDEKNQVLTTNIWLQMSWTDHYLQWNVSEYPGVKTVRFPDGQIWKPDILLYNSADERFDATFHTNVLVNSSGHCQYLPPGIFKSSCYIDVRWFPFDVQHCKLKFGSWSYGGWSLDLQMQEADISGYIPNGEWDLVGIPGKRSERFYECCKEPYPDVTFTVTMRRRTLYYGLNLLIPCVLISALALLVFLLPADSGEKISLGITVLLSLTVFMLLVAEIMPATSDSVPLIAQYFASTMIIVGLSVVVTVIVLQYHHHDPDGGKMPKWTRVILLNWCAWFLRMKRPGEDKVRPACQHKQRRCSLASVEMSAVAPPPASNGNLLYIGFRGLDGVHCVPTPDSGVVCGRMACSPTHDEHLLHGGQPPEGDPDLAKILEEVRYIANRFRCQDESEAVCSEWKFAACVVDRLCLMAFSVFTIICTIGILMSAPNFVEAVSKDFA
# T1 sequence (P30926 22-498): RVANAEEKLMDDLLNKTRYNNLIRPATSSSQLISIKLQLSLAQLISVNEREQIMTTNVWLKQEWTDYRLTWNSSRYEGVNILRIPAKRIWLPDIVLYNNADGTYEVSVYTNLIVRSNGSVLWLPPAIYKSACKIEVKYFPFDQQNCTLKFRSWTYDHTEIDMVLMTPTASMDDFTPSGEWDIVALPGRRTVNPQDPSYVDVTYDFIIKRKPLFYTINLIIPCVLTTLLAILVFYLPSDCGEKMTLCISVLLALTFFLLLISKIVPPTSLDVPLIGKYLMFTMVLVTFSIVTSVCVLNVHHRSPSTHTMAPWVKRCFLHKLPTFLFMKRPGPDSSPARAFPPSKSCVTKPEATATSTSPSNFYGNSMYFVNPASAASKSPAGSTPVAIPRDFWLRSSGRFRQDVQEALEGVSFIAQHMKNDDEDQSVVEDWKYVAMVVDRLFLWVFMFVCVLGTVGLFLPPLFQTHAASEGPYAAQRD
# T1 sequence (P32297 32-505): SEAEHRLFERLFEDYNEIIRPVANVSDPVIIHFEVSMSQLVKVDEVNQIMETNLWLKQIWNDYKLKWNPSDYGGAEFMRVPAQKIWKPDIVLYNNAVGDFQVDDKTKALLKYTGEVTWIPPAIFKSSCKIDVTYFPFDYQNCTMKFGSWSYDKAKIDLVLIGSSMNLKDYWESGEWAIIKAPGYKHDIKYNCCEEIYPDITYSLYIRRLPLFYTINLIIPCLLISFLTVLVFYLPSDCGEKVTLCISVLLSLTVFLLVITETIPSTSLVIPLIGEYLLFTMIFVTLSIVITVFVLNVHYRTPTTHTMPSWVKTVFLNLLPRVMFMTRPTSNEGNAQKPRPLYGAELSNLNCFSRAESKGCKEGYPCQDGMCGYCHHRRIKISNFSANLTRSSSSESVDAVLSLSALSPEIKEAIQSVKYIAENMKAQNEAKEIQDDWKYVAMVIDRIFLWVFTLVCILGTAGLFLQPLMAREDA
smiles,measurement,setting,value
C[N+](C)(C)[C@@H](Cc1c[nH]c(=S)[nH]1)C(=O)[O-] [L-ergothioneine],activity to inhibit binding of substrates to α3β4 receptors,"[1]; FIG. 3, [125I]epibatidine",strong activity
same,pIC50,"[1]; five concentrations 30-3000 μM, 0.05 nM [125I]epibatidine, CHO-K1 cell membranes, 25° C., 60 minutes, read-out: 50% inhibitory concentration",2.95
same,activity to inhibit binding of substrates to α4β2 receptors,[2],showed the activity
same,activity to inhibit binding of substrates to α7 receptors,[3],showed the activity
